System: anaesthetized rats
Experiment: Blood pressure measurements in anaesthetized rats
Type: in vivo, rat
Details: male Wistar rats, oral, dose 10 mg/kg
Protocol: (§1) To determine the cardiovascular actions, the following investigations were carried out: in in vitro investigations on cells of vascular origin, the influx on guanylate cyclase-dependent cGMP formation was tested with and without NO donor. The anti-aggregatory properties were shown on human platelets stimulated with collagen. The vasorelaxant action was determined in rabbit aortal rings precontracted with phenylephrine. The hypotentive action was investigated in anaesthetized rats.
Male Wistar rats having a body weight of 300-350 g are anaesthetized with thiopental (100 mg/kg i.p.) After tracheotomy, a catheter is inserted in the femoral artery for blood pressure measurement. The substances to be tested are administered orally in various doses by means of stomach tube as a suspension in Tylose solution.
In the case of `OCc1ccc(-c2nn(Cc3ccccc3)c3ncccc23)o1` [Example 13, 1-Benzyl-3-(5-hydroxymethyl-2-furyl)-1-H-pyrazolo[3,4-b]pyridine], the “Max blood pressure fall” value is reported as −13 mm Hg and the “Time (of max blood pressure fall)” value is reported as 60 min.

Same assay, conditions: male Wistar rats, oral, dose 30 mg/kg
For `OCc1ccc(-c2nn(Cc3ccccc3)c3ncccc23)o1` [Example 13, 1-Benzyl-3-(5-hydroxymethyl-2-furyl)-1-H-pyrazolo[3,4-b]pyridine], the “Max blood pressure fall” value was −23 mm Hg and the “Time (of max blood pressure fall)” value was 60 min.

System: soluble guanylate cyclase
Experiment: Stimulation of soluble guanylate cyclase in primary endothelial cells (intracellular cGMP)
Type: cell-based
Details: primary rabbit aortic endothelial cells, test substance final concentration 1 μM, 10 min incubation, with or without NO donor (SNP 1 μM)
Protocol: as §1
Primary endothelial cells were isolated from rabbit aortas by treatment with collagenase soln. The cells were then cultured in culture medium at 37° C./5% CO2 until confluence was reached. For the investigations, the cells were passaged, inoculated into 24-hole cell culture plates and subcultured until reaching confluence (˜2×10^5 cells/hollow). For the stimulation of endothelial guanylate cyclase, the culture medium was aspirated and the cells were washed once with Ringer solution. After removing the Ringer solution, the cells were incubated for 10 minutes at 37° C./5% CO2 in stimulation buffer with or without NO donor (sodium nitroprusside, SNP, 1 μM). […] The supernatants containing the intracellular cGMP were then removed and the cGMP concentration was determined by means of the cGMP-SPA system (Amersham Buchler, Brunswick).
In the case of `O=Cc1ccc(-c2nn(Cc3ccccc3F)c3nc(O)ccc23)o1` [Example 32], the “cGMP increase (%)” value is reported as 135%.

System: not given
Experiment: not given
Details: not given
With `Cc1nc(-c2nn(Cc3ccccc3F)c3ncccc23)oc1CO` [Example 68] the melting point was 145 °C. `CCCCCCCCN[S+]([O-])c1ccc(-c2nn(Cc3ccccc3F)c3ncccc23)o1` (centres unmarked) [Example 53] showed a melting point of 69 °C. Compound `Nc1nc(-c2ccccc2)nc2c1c(-c1ccc(CO)o1)nn2Cc1ccccc1F` [Example 39] has a melting point of 225 °C. With `CN(C)c1ncnc2c1c(-c1ccc(CO)o1)nn2Cc1ccccc1F` [Example 37] the melting point was 94 °C. Compound `[O-][S+](c1ccc(-c2nn(Cc3ccccc3F)c3ncccc23)o1)N1CCCC1` (centres unmarked) [Example 65] has a melting point of 107 °C. With `OCc1ccc(-c2nn(Cc3ccccc3)c3ncncc23)o1` [Example 34] the melting point was 165 °C. `[O-][S+](c1ccc(-c2nn(Cc3ccccc3F)c3ncccc23)o1)N1CCOCC1` (centres unmarked) [Example 54] gave a melting point of 122 °C. For `CN1CCC([S+]([O-])c2ccc(-c3nn(Cc4ccccc4F)c4ncccc34)o2)CC1` (centres unmarked) [Example 52], the melting point was 279 °C. For `[O-][S+](NCc1ccccc1)c1ccc(-c2nn(Cc3ccccc3F)c3ncccc23)o1` (centres unmarked) [Example 51], the melting point was 126 °C. With `CC(C)CN[S+]([O-])c1ccc(-c2nn(Cc3ccccc3F)c3ncccc23)o1` (centres unmarked) [Example 58] the melting point was 109 °C. `CC(C)NS(=O)(=O)c1ccc(-c2nn(Cc3ccccc3F)c3ncccc23)o1` [Example 61] showed a melting point of 109 °C. Compound `[O-][S+](NCc1cccc2ccccc12)c1ccc(-c2nn(Cc3ccccc3F)c3ncccc23)o1` (centres unmarked) [Example 63] has a melting point of 158 °C. `Cc1coc(-c2nn(Cc3ccccc3F)c3ncccc23)n1` [Example 67] showed a melting point of 106 °C. Work on `CCCCCCN[S+]([O-])c1ccc(-c2nn(Cc3ccccc3F)c3ncccc23)o1` (centres unmarked) [Example 59] yielded a melting point of 114 °C. For `CC(C)N[S+]([O-])c1ccc(-c2nn(Cc3ccccc3F)c3ncccc23)o1` (centres unmarked) [Example 56], the melting point was 136 °C. `CC(N[S+]([O-])c1ccc(-c2nn(Cc3ccccc3F)c3ncccc23)o1)c1ccccc1` (centres unmarked) [Example 64] showed a melting point of 132 °C. With `Nc1ncnc2c1c(-c1ccc(CO)o1)nn2Cc1ccccc1F` [Example 36] the melting point was 207 °C. `[O-][S+](NC1CC1)c1ccc(-c2nn(Cc3ccccc3F)c3ncccc23)o1` (centres unmarked) [Example 57] gave a melting point of 138 °C. `COCCOc1cnc2c(c1)c(-c1ccc(CO)o1)nn2Cc1ccccc1F` [Example 42] gave a melting point of 106 °C. For `[O-][S+](Nc1cccc(Cl)c1)c1ccc(-c2nn(Cc3ccccc3F)c3ncccc23)o1` (centres unmarked) [Example 66], the melting point was 110 °C. With `CN(C)[S+]([O-])c1ccc(-c2nn(Cc3ccccc3F)c3ncccc23)o1` (centres unmarked) [Example 50] the melting point was 107 °C. Work on `Nc1ncnc2c1c(-c1ccc(CO)o1)nn2Cc1ccccc1` [Example 35] yielded a melting point of 213 °C. Work on `[O-][S+](NC1CCCCCC1)c1ccc(-c2nn(Cc3ccccc3F)c3ncccc23)o1` (centres unmarked) [Example 60] yielded a melting point of 161 °C. Work on `Cc1cc(C)c2c(-c3ccc(CO)o3)nn(Cc3ccccc3)c2n1` [Example 43] yielded a melting point of 155 °C. Compound `O=CNc1nc(-c2ccccc2)nc2c1c(-c1ccc(CO)o1)nn2Cc1ccccc1F` [Example 40] has a melting point of 189 °C. Compound `Nc1nc(N)c2c(-c3ccc(CO)o3)nn(Cc3ccccc3F)c2n1` [Example 38] has a melting point of 205 °C. `Cc1nc2c(c(-c3ccc(CO)o3)nn2Cc2ccccc2)c(C)c1C` [Example 44] showed a melting point of 180 °C.
